Measurements from US8829185B2 (Bayer HealthCare LLC, priority 2005, dated 2014).

Target: T1, FGFR1-GST (Homo sapiens, UniProt P11362)
T1 construct: GST; made in house
Test: FGFR-1 TR-FRET biochemical assay
Protocol: FGFR-1 TR-FRET Biochemical Assay
The FGFR-1 Assay was performed on half well 96-well opaque plates (Costar 3915) in a LANCE format. LANCE is a homogenous time resolved fluormetry based application available through Perkin Elmer. For this assay, 50 uL reactions were set up using: 0.6 uM ATP (Sigma), 25 nM poly GT-biotin (CIS BIO International), 2 nM Eu-labelled phospho-Tyr Ab (PY20 PerkinElmer), 10 nM Streptavidin-APC (Perkin Elmer), 5 nM FGFR1-GST (generated by DRT, Bayer Healthcare), 1% DMSO, 50 mM HEPES pH 7.5, 10 mM MgCl2, 0.1 mM EDTA, 0.015% Brij, 0.1 mg/ml BSA, 0.1% B-mercaptoethanol. All reactions were initiated with the addition of enzyme and were left to incubate for one hour at room temperature. Time-resolved fluorescence was then read on a Perkin Elmer VictorV Multilabel counter. The reading protocol uses an excitation wavelength at 340 nm and emission reads at both 615 and 665 nm. Signal was calculated as a ratio: (Fluorescence at 665 nm/Fluorescence at […])*10000 for each well. The background control used for this assay is the signal produced with all assay components excluding ATP. For IC50 generation, compounds were added prior to the enzyme initiation. A 50-fold stock plate was made with compounds serially diluted 1:5 in a 50% DMSO/50% dH2O solution. A 1 μL addition of the stock to the assay wells gave final compound concentrations ranging from 10 μM −0.128 nM in 1% DMSO. The data were expressed as percent inhibition: % inhibition=100−((Signal with inhibitor-background)/(Signal without inhibitor−background))*100.

T1 sequence (P11362 22-822): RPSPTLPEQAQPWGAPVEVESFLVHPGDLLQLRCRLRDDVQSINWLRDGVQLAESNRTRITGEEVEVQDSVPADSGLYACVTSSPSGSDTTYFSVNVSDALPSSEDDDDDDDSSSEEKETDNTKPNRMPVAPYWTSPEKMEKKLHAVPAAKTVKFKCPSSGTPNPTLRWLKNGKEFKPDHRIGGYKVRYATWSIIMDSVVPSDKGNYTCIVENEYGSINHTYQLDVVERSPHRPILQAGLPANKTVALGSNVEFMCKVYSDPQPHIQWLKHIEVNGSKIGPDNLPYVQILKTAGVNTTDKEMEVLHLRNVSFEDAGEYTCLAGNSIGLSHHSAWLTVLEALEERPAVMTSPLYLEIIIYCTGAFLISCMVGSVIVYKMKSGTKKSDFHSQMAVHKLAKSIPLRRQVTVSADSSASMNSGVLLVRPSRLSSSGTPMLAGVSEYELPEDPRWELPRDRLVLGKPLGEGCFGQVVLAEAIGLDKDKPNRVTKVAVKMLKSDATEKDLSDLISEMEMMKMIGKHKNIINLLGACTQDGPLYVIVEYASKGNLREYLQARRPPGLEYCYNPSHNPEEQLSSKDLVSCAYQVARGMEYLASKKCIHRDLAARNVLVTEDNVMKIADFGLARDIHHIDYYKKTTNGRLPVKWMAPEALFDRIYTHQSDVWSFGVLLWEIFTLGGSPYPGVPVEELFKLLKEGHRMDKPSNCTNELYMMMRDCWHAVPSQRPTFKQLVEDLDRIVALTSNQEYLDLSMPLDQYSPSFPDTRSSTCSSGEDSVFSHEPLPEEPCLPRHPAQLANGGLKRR

SMILES	IC50 (bounds given in nM)	IC50 (upper bound in μM)
N#Cc1c(C(=O)O)c(-c2ccc(NC(=O)Nc3cc(C(F)(F)F)ccn3)cc2)c2c(N)ncnn12 [Example 8, 4-amino-7-cyano-5-{4-[({[4-(trifluoromethyl)pyridin-2-yl]amino}carbonyl)amino]phenyl}pyrrolo[2,1-f][1,2,4]triazine-6-carboxylic acid]	> 100 nM	< 1000 nM
CC(=O)c1c(-c2ccc(NC(=O)Nc3cc(C(F)(F)F)ccc3F)c(F)c2)c2c(N)ncnn2c1CN1CCOCC1 [Example 57, N-4-[6-acetyl-4-amino-7-(morpholin-4-ylmethyl)pyrrolo[2,1-f]-[1,2,4]triazin-5-yl]-2-fluorophenyl-N′-[2-fluoro-5-(trifluoromethyl)phenyl]urea]	10 to 100 nM	–
CC(=O)c1c(-c2ccc(NC(=O)Nc3cc(C(F)(F)F)ccn3)cc2)c2c(N)ncnn2c1CN1CCOCC1 [Example 88, N-{4-[6-acetyl-4-amino-7-(morpholin-4-ylmethyl)pyrrolo[2,1-f][1,2,4]triazin-5-yl]phenyl}-N′-[4-(trifluoromethyl)-pyridin-2-yl]urea]	10 to 100 nM	–
CON(C)C(=O)c1c(-c2ccc(NC(=O)Nc3cc(C(F)(F)F)ccn3)cc2)c2c(N)ncnn2c1CN1CCN(C)CC1 [Example 94, 4-amino-N-methoxy-N-methyl-7-[(4-methylpiperazin-1-yl)methyl]-5-{4-[({[4-(trifluoromethyl)pyridin-2-yl]amino}-carbonyl)amino]-phenyl}pyrrolo[2,1-f][1,2,4]triazine-6-carboxamide]	> 100 nM	< 1000 nM
Nc1ncnn2c(CN3CCOCC3)c(C(O)C3CC3)c(-c3ccc(NC(=O)Nc4cc(C(F)(F)F)ccc4F)cc3)c12 (stereo not shown) [Example 106, N-4-[4-amino-6-[cyclopropyl(hydroxy)methyl]-7-(morpholin-4-ylmethyl)pyrrolo[2,1-f][1,2,4]triazin-5-yl]phenyl-N′-[2-fluoro-5-(trifluoromethyl)phenyl]urea]	10 to 100 nM	–
COCc1c(-c2ccc(NC(=O)Nc3cccc(C(F)(F)F)n3)cc2)c2c(N)ncnn2c1CN1CCOCC1 [Example 50]	> 100 nM	< 1000 nM
CCc1c(-c2ccc(NC(=O)Nc3cc(C(F)(F)F)ccn3)cc2)c2c(N)ncnn2c1CN1CCOCC1 [Example 148, N-{4-[4-amino-6-ethyl-7-(morpholin-4-ylmethyl)pyrrolo[2,1-f][1,2,4]triazin-5-yl]phenyl}-N′-[4-(trifluoromethyl)pyridin-2-yl]urea]	10 to 100 nM	–
CNCc1c(-c2ccc(NC(=O)Nc3cc(C(F)(F)F)ccc3F)cc2)c2c(N)ncnn2c1CN1CCOCC1 [Example 109, N-4-[4-amino-6-[(methylamino)methyl]-7-(morpholin-4-ylmethyl)pyrrolo[2,1-f][1,2,4]triazin-5-yl]phenyl-N′-[2-fluoro-5-(trifluoromethyl)phenyl]urea]	10 to 100 nM	–
Nc1ncnn2c(CN3CCOCC3)c(Cl)c(-c3ccc(NC(=O)Nc4cc(C(F)(F)F)ccc4Cl)c(F)c3)c12 [Example 159, N-{4-[4-amino-6-chloro-7-(morpholin-4-ylmethyl)pyrrolo[2,1-f][1,2,4]triazin-5-yl]-2-fluorophenyl}-N′-[2-chloro-5-(trifluoromethyl)-phenyl]urea]	10 to 100 nM	–
Nc1ncnn2c(CN3CCOCC3)c(Cl)c(-c3ccc(NC(=O)Nc4cc(C(F)(F)F)ccc4F)c(F)c3)c12 [Example 152, N-{4-[4-amino-6-chloro-7-(morpholin-4-ylmethyl)pyrrolo[2,1-f][1,2,4]triazin-5-yl]-2-fluorophenyl}-N′-[2-fluoro-5-(trifluoromethyl)-phenyl]urea]	10 to 100 nM	–

Other lines, results leading:

IC50 (bounds given in nM)	IC50 (upper bound in μM)	SMILES
10 to 100 nM	–	COCc1c(-c2ccc(NC(=O)Nc3cc(C(F)(F)F)ccc3F)c(F)c2)c2c(N)ncnn2c1CN1CCS(=O)(=O)CC1 [Example 43, N-{4-[4-amino-7-[(1,1-dioxidothiomorpholin-4-yl)methyl]-6-(methoxymethyl)pyrrolo[2,1-f][1,2,4]triazin-5-yl]-2-fluorophenyl}-N′-[2-fluoro-5-(trifluoromethyl)phenyl]urea]
10 to 100 nM	–	CC(=O)c1c(-c2ccc(NC(=O)Nc3cc(C(F)(F)F)ccn3)cc2)c2c(N)ncnn2c1CN1CCN(C)CC1 [Example 96, N-(4-{6-acetyl-4-amino-7-[(4-methylpiperazin-1-yl)methyl]pyrrolo[2,1-f][1,2,4]triazin-5-yl}phenyl)-N′-[4-(trifluoromethyl)-pyridin-2-yl]urea]
< 10 nM	–	COCc1c(-c2ccc(NC(=O)Nc3cc(C)ccc3F)c(F)c2)c2c(N)ncnn2c1CN1CCOCC1 [Example 131, N-{4-[4-amino-6-(methoxymethyl)-7-(morpholin-4-ylmethyl)-pyrrolo[2,1-f][1,2,4]triazin-5-yl]-2-fluorophenyl}-N′-(2-fluoro-5-methyl-phenyl)urea]
< 10 nM	–	CN1CCN(Cc2c(-c3cnco3)c(-c3ccc(NC(=O)Nc4cc(C(F)(F)F)ccc4F)cc3)c3c(N)ncnn23)CC1 [Example 31, N-4-[4-amino-7-[(4-methylpiperazin-1-yl)methyl]-6-(1,3-oxazol-5-yl)pyrrolo[2,1-f][1,2,4]triazin-5-yl]phenyl-N′-[2-fluoro-5-(trifluoromethyl)phenyl]urea]
< 10 nM	–	Cc1ccc(F)c(NC(=O)Nc2ccc(-c3c(Cl)c(CN4CCOCC4)n4ncnc(N)c34)cc2F)c1 [Example 161, N-{4-[4-amino-6-chloro-7-(morpholin-4-ylmethyl)pyrrolo[2,1-f][1,2,4]triazin-5-yl]-2-fluorophenyl}-N′-(2-fluoro-5-methylphenyl)urea]
10 to 100 nM	–	COCc1c(-c2ccc(NC(=O)Nc3cc(C)ccc3F)c(F)c2)c2c(N)ncnn2c1CN1CCCOCC1 [Example 140, N-{4-[4-amino-6-(methoxymethyl)-7-(1,4-oxazepan-4-ylmethyl)-pyrrolo[2,1-f][1,2,4]triazin-5-yl]-2-fluorophenyl}-N′-(2-fluoro-5-methylphenyl)urea]
< 10 nM	–	N#CCc1c(-c2ccc(NC(=O)Nc3cc(C(F)(F)F)ccn3)cc2)c2c(N)ncnn2c1CN1CCOCC1 [Example 63, N-{4-[4-amino-6-(cyanomethyl)-7-(morpholin-4-ylmethyl)-pyrrolo[2,1-f][1,2,4]triazin-5-yl]phenyl}-N′-[4-(trifluoromethyl)-pyridin-2-yl]urea]
10 to 100 nM	–	Cc1c(-c2cc(F)c(NC(=O)Nc3cc(C(F)(F)F)ccc3F)cc2F)c2c(N)ncnn2c1CN1CCOCC1 [Example 123, N-{4-[4-amino-6-methyl-7-(morpholin-4-ylmethyl)pyrrolo[2,1-f][1,2,4]triazin-5-yl]-2,5-difluorophenyl}-N′-[2-fluoro-5-(trifluoromethyl)-phenyl]urea]
10 to 100 nM	–	COCc1c(-c2ccc(NC(=O)Nc3cc(C(F)(F)F)ccc3Cl)cc2)c2c(N)ncnn2c1CN1CCOCC1 [Example 49, N-{4-[4-amino-6-(methoxymethyl)-7-(morpholin-4-ylmethyl)pyrrolo[2,1-f][1,2,4]triazin-5-yl]phenyl}-N′-[2-chloro-5-(trifluoromethyl)phenyl]urea]
< 10 nM	–	CC(=O)c1c(-c2ccc(NC(=O)Nc3cccc(C(F)(F)F)c3)c(F)c2)c2c(N)ncnn2c1CN1CCOCC1 [Example 58, N-4-[6-acetyl-4-amino-7-(morpholin-4-ylmethyl)pyrrolo[2,1-f][1,2,4]triazin-5-yl]-2-fluorophenyl-N′-[3-(trifluoromethyl)phenyl]urea]
< 10 nM	–	Nc1ncnn2c(CN3CCOCC3)c(/C=N/O)c(-c3ccc(NC(=O)Nc4cc(C(F)(F)F)ccc4F)cc3)c12 [Example 102, N-4-[4-amino-6-[(E)-(hydroxyimino)methyl]-7-(morpholin-4-ylmethyl)pyrrolo[2,1-f][1,2,4]triazin-5-yl]phenyl-N′-[2-fluoro-5-(trifluoromethyl)phenyl]urea]
10 to 100 nM	–	COCc1c(-c2ccc(NC(=O)Nc3cc(C(F)(F)F)ccc3F)c(F)c2)c2c(N)ncnn2c1C1CCNCC1 [Example 149, 1-{4-[4-amino-6-(methoxymethyl)-7-piperidin-4-ylpyrrolo[2,1-f][1,2,4]triazin-5-yl]-2-fluorophenyl}-3-[2-fluoro-5-(trifluoro-methyl)phenyl]urea]
10 to 100 nM	–	CN1CCN(Cc2c(CC#N)c(-c3ccc(NC(=O)Nc4cc(C(F)(F)F)ccc4F)cc3)c3c(N)ncnn23)CC1 [Example 74, N-(4-{4-amino-6-(cyanomethyl)-7-[(4-methylpiperazin-1-yl)methyl]pyrrolo[2,1-f][1,2,4]triazin-5-yl}phenyl)-N′-[2-fluoro-5-(trifluoromethyl)phenyl]urea]
10 to 100 nM	–	COCc1c(-c2ccc(NC(=O)Nc3cc(C(F)(F)F)ccn3)cc2)c2c(N)ncnn2c1CN1CCOCC1 [Example 35, N-4-[4-amino-6-(methoxymethyl)-7-(morpholin-4-ylmethyl)pyrrolo[2,1-f][1,2,4]triazin-5-yl]phenyl-N′-[4-(trifluoromethyl)pyridin-2-yl]urea]
< 10 nM	–	COCc1c(-c2ccc(NC(=O)Nc3cc(C(F)(F)F)ccc3F)c(F)c2)c2c(N)ncnn2c1CN1CCOCC1 [Example 45, N-{4-[4-amino-6-(methoxymethyl)-7-(morpholin-4-ylmethyl)pyrrolo[2,1-f][1,2,4]triazin-5-yl]-2-fluorophenyl}-N′-[2-fluoro-5-(trifluoromethyl)phenyl]urea]
